According to patent publication US10786508B2, “Substituted imidazo[1,5-A]-pyrimidines and their use in the treatment of medical disorders” (Lysosomal Therapeutics Inc., priority 2014, dated 2020):
Converted amounts (≈) assume the structure as drawn.

Legend:
[1] = Compound solubility in water; type: physicochemical
[2] = target: T1, glucocerebrosidase (Gcase) (Homo sapiens, UniProt P04062); assay: Glucocerebrosidase (Gcase) activation assay, 4-methylumbelliferyl-beta-D-glucopyranoside substrate, with saposin C; type: biochemical; settings: 10 nM GCase, 100 nM saposin C, pH 4.7; for activation at 0.1 µM: read-out: Percent Gease Activation 0.1 μM Test Compound; for activation at 1 µM: read-out: Percent Gease Activation 1 μM Test Compound
T1 construct: micellar solution containing 10 nM GCase and 100 nM saposin C
T1 sequence (P04062 40-536): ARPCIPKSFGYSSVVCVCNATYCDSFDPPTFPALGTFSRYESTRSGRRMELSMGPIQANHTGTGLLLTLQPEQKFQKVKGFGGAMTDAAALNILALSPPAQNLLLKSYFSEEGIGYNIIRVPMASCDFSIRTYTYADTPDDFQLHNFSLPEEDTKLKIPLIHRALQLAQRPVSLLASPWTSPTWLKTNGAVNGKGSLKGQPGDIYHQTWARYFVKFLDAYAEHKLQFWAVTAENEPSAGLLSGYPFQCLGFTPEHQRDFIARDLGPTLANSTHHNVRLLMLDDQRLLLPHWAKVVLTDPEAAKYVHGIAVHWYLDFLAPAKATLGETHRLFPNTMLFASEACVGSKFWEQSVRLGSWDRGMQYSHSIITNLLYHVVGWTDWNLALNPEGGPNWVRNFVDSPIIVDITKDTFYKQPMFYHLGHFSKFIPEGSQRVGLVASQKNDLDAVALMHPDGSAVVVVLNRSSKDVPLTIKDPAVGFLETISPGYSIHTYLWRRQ
Method: The ability of exemplary compounds to activate glucocerebrosidase (Gcase) was measured.
A 484 μL aliquot of a 1.0 mg/mL solution of phosphatidylserine (PS) (Sigma P7769) in chloroform was evaporated under a stream of nitrogen for 1 hour. The lipid film was dissolved over 4 minutes of vigorous vortexing in 40 mL of 176 mM K2HPO4/50 mM citric acid (pH 4.7) containing 7.5 μL of triton X-100, resulting in a mixed micellar preparation with a composition of 0.32 mM triton and 0.37 mol % PS. 4-Methylumbelliferyl-beta-D-glucopyranoside (ACROS-337025000) was dissolved in the micellar solution to a final concentration of 2 mM for use as the reaction substrate.
Test compounds were diluted to the desired concentrations with dimethylsulfoxide (DMSO) from 10 mM stocks, and 0.41 μL of the DMSO compound mixture was added to 100 μL of micellar solution containing 10 nM GCase and 100 nM saposin C (Enzo ALX-201-262-C050). Pre-incubation was allowed to occur for 30 minutes at room temperature, after which the reaction was initiated by combining 25 μL of substrate solution with 25 μL of compound/GCase/saposin mixture. The reaction proceeded for 15 minutes at room temperature and was stopped by adding 150 μL of 1M glycine, pH 12.5. The endpoint of the reaction was monitored by measuring fluorescence intensity (excitation: 365 nm; emission: 440 nm) on a SpectraMax i3 instrument (Molecular Devices). Test compounds were screened at 1.0 and 0.1 μM final concentration, and subsequent 8-point dose response curves were obtained using 3-fold dilutions from a maximum final concentration of 5 μM.
For experiments in which the test compound was used at a concentration of 1.0 μM, the symbol “+” indicates less than 30% Gcase activation; the symbol “++” indicates Gcase activation in the range of 30% up to 60%; and the symbol “+++” indicates Gcase activation greater than 60%. For experiments in which the test compound was used at a concentration of 0.1 μM, the symbol “*” indicates less than 10% Gcase activation; the symbol “**” indicates Gcase activation in the range of 10% up to 20%; and the symbol “***” indicates greater than 20% Gcase activation.

Row | Structure (SMILES) | solubility [1] [µg/mL] | activation at 0.1 µM ([2]; 0.1 μM test compound) [%] | activation at 1 µM ([2]; 1 μM test compound) [%] | Compound Solubility in Water [1] [µg/mL] | Percent Gease Activation 0.1 μM Test Compound ([2]; 0.1 μM test compound) | Percent Gease Activation 1 μM Test Compound ([2]; 1 μM test compound)
1 | C#Cc1ccc(NC(=O)c2ncn3c(C)cc(C)nc23)cc1 [III-1] | < 1.5 | 10 to 20 | > 60 |  |  | 
2 | COCC#Cc1ccc(NC(=O)c2ncn3c(C)cc(C)nc23)cc1 [III-2] | 5.8 (≈ 17.3 µM) | < 10 | 30 to 60 |  |  | 
3 | Cc1cc(C)n2cnc(C(=O)Nc3ccc(-c4cocn4)cc3)c2n1 [III-3] | 4.8 (≈ 14.4 µM) | < 10 | 30 to 60 |  |  | 
4 | Cc1cc(C)n2cnc(C(=O)Nc3ccc(-c4ncco4)cc3)c2n1 [III-4] | 7.9 (≈ 23.7 µM) | < 10 | 30 to 60 |  |  | 
5 | C#Cc1ccc(NC(=O)c2ncn3c(C)cc(C)nc23)cn1 [III-5] | 26.6 (≈ 91.3 µM) | < 10 | < 30 |  |  | 
6 | Cc1cc(C)n2cnc(C(=O)Nc3ncc(C)[nH]3)c2n1 [III-6] | > 54 | < 10 | < 30 |  |  | 
7 | Cc1cc(C)n2cnc(C(=O)Nc3ccc4[nH]c(C)cc4c3)c2n1 [III-7] | 0.7 (≈ 2.19 µM) | < 10 | < 30 |  |  | 
8 | Cc1cc(C)n2cnc(C(=O)Nc3ccc4[nH]ncc4c3)c2n1 [III-8] | 0.4 (≈ 1.31 µM) | < 10 | < 30 |  |  | 
9 | Cc1cc(C)n2cnc(C(=O)Nc3ccc4c(C)cc(=O)oc4c3)c2n1 [III-9] | 0.3 (≈ 0.861 µM) | < 10 | < 30 |  |  | 
10 | Cc1cc(C)n2cnc(C(=O)Nc3ccc4c(c3)CC(=O)N4)c2n1 [III-10] | 6.4 (≈ 19.9 µM) | < 10 | < 30 |  |  | 
11 | Cc1cc(C)n2cnc(C(=O)Nc3ccc4cn[nH]c4c3)c2n1 [III-11] | 0.5 (≈ 1.63 µM) | < 10 | < 30 |  |  | 
12 | Cc1cc(C)n2cnc(C(=O)Nc3ccc4c(c3)OCO4)c2n1 [III-12] | 3.4 (≈ 11 µM) | < 10 | < 30 |  |  | 
13 | Cc1cc(C)n2cnc(C(=O)Nc3ccc4nc(O)cc(C)c4c3)c2n1 [III-13] | 0.3 (≈ 0.864 µM) | < 10 | < 30 |  |  | 
14 | COc1cc(NC(=O)c2ncn3c(C)cc(C)nc23)ccc1-c1cnco1 [III-14] | 0.5 (≈ 1.38 µM) | < 10 | < 30 |  |  | 
15 | Cc1cc(C)n2cnc(C(=O)Nc3ccc4nc(C)oc4c3)c2n1 [III-15] | 3 (≈ 9.34 µM) | < 10 | < 30 |  |  | 
16 | Cc1cc(C)n2cnc(C(=O)Nc3ccc4c(c3)CCNC4)c2n1 [III-16] | 29.9 (≈ 93 µM) | < 10 | < 30 |  |  | 
17 | Cc1cc(C)n2cnc(C(=O)Nc3ccc4c(=O)cc(C)oc4c3)c2n1 [III-17] | 0.4 (≈ 1.15 µM) | < 10 | < 30 |  |  | 
18 | Cc1cc(C)n2cnc(C(=O)Nc3ccc4oncc4c3)c2n1 [III-18] | 2.3 (≈ 7.48 µM) | < 10 | < 30 |  |  | 
19 | Cc1cc(C)n2cnc(C(=O)Nc3ccc4oc(-c5ccncc5)nc4c3)c2n1 [III-19] | 0.3 (≈ 0.78 µM) | < 10 | 30 to 60 |  |  | 

Row | Structure (SMILES) | solubility [1] [µg/mL] | activation at 0.1 µM ([2]; 0.1 μM test compound) [%] | activation at 1 µM ([2]; 1 μM test compound) [%] | Compound Solubility in Water [1] [µg/mL] | Percent Gease Activation 0.1 μM Test Compound ([2]; 0.1 μM test compound) | Percent Gease Activation 1 μM Test Compound ([2]; 1 μM test compound)
20 | Cc1cc(C)n2cnc(C(=O)Nc3ccc4[nH]c(-c5ccco5)nc4c3)c2n1 [III-20] | 0.3 (≈ 0.806 µM) | < 10 | < 30 |  |  | 
21 | Cc1cc(C)n2cnc(C(=O)Nc3ccc4nc(C)sc4c3)c2n1 [III-21] | 1.1 (≈ 3.26 µM) | < 10 | < 30 |  |  | 
22 | Cc1cc(C)n2cnc(C(=O)Nc3ccc4c(c3)CCC4)c2n1 [III-22] | 4.7 (≈ 15.3 µM) | 10 to 20 | > 60 |  |  | 
23 | Cc1cc(C)n2cnc(C(=O)Nc3ccc(Cl)c(COc4cccnc4)c3)c2n1 [III-23] | 0.3 (≈ 0.736 µM) | 10 to 20 | > 60 |  |  | 
24 | Cc1cc(C)n2cnc(C(=O)Nc3ccc4nccc(O)c4c3)c2n1 [III-24] | 6 (≈ 18 µM) | < 10 | < 30 |  |  | 
25 | Cc1cc(C)n2cnc(C(=O)Nc3ccc4nccc(O)c4c3)c2n1 [III-25] |  | < 10 | < 30 | 3.8 |  | 
26 | Cc1cc(C)n2cnc(C(=O)Nc3ccc(C)c(-c4ncco4)c3)c2n1 [III-26] | 0.5 (≈ 1.44 µM) | 10 to 20 | > 60 |  |  | 
27 | Cc1cc(C)n2cnc(C(=O)Nc3ccc(Cl)c(-c4cnco4)c3)c2n1 [III-27] | 0.2 (≈ 0.544 µM) | < 10 | 30 to 60 |  |  | 
28 | CCCCCOc1ccc(NC(=O)c2ncn3c(C)cc(C)nc23)cc1 [III-28] | 0.3 (≈ 0.851 µM) | > 20 | > 60 |  |  | 
29 | Cc1cc(C)n2cnc(C(=O)Nc3ccc(-c4cccs4)nc3)c2n1 [III-29] | 0.4 (≈ 1.14 µM) | 10 to 20 | > 60 |  |  | 
30 | Cc1cc(C)n2cnc(C(=O)Nc3ccc(-c4ccco4)cc3)c2n1 [III-30] | 0.3 (≈ 0.903 µM) | > 20 | > 60 |  |  | 
31 | Cc1cc(C)n2cnc(C(=O)Nc3ccc(-c4ccco4)nc3)c2n1 [III-31] |  |  |  | <0.01 | * (less than 10% Gcase activation) | + (less than 30% Gcase activation)
32 | O=C(NC1CCCc2ccccc21)c1ncn2c(C(F)F)cc(C(F)F)nc12 (centres unmarked) [III-32] | 17.2 (≈ 43.8 µM) | < 10 | < 30 |  |  | 
33 | COCc1cc(C2CC2)nc2c(C(=O)NC3(C)CCOc4c(F)ccc(F)c43)ncn12 (centres unmarked) [III-33] |  | 10 to 20 | > 60 |  |  | 
34 | Cc1cc(C(F)(F)F)nc2c(C(=O)NC3(C)CCCc4ccccc43)ncn12 (centres unmarked) [III-34] | 24.9 (≈ 64.1 µM) | < 10 | < 30 |  |  | 
35 | C#Cc1ccc(C(C)(C)NC(=O)c2ncn3c(C)cc(C(F)(F)F)nc23)cc1 [III-39] |  | < 10 | < 30 |  |  | 
36 | C#Cc1ccc(NC(=O)c2ncn3c(C)cc(C)nc23)c(F)c1 [III-48] |  | 10 to 20 | > 60 |  |  | 
37 | C#Cc1ccc(NC(=O)c2ncn3c(C)cc(C)nc23)cc1F [III-49] |  | 10 to 20 | > 60 |  |  | 
